1 compound from publication PMC9979163, “Discovery and functional characterization of N-(thiazol-2-yl)-benzamide analogs as the first class of selective antagonists of the Zinc-Activated Channel (ZAC)” (Biochemical pharmacology, 2021) can be followed below.

SMILES strings stand for the structures.

For one test, the target named is T1, ZAC (Homo sapiens, UniProt Q401N2).
T1 sequence (Q401N2 26-412): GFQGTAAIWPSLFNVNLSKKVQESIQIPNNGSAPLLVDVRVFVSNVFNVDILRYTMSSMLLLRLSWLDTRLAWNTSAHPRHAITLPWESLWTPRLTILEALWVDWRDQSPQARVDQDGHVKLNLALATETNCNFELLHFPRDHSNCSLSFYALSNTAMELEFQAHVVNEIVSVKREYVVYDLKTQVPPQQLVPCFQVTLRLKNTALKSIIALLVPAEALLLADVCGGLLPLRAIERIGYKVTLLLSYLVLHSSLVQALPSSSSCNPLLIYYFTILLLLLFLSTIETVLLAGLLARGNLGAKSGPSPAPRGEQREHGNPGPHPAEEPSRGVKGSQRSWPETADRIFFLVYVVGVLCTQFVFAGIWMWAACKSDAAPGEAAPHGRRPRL
Description: FMP assay at ZAC-HEK293 cells. Format: cell-based. On the procedure: The screening of the 1,680 compounds in the compound library for antagonist activity at the ZAC-HEK293 cell line was performed in the FMP assay essentially as previously described. The day before the assay, cells were split into poly-D-lysine-coated black 96-well plates with clear bottoms (BD Biosciences, Palo Alto, CA) (6 × 10^4 cells/well). The following day, the culture medium was aspirated and the wells were washed once with 100 μl assay buffer (140 mM NaCl, 4.7 mM KCl, 2.5 mM CaCl2, 1.2 mM MgCl2, 11 mM HEPES, 10 mM D-glucose, pH 7.4), after which 100 μl assay buffer supplemented with FMP dye (0.5 mg/ml) and the various test compounds were added to the wells. The plate was then incubated at 37 °C for 30 min and assayed in a NOVOStar plate reader (BMG Labtechnologies, Offenburg, Germany) measuring emission at 560 nm caused by excitation at 530 nm before and up to 1 min after the addition of 33 μl of agonist solution. In the screening, the 1,680 compounds in the compound library were tested at assay concentrations in the 10–30 μM range, using Cu^2+ as agonist at an assay concentration of 200 μM.
Data from the FMP assay was analysed using KaleidaGraph 3.08 (Synergy Software, Reading, PA). Concentration-response curves for Cu^2+ and concentration-inhibition curves for compound 1 were constructed based on the difference in the relative fluorescence units (RFU) between the maximal fluorescence recorded before and after application of Cu^2+. The data were fitted to sigmoidal curves with variable slopes using nonlinear regression, and EC50 (Cu^2+) and IC50 (compound 1) values were derived from these equations.

Another test has as its target T2, h5-HT3A (Homo sapiens, UniProt P46098).
T2 construct: expressed in transfected cells
T2 sequence (P46098 24-478): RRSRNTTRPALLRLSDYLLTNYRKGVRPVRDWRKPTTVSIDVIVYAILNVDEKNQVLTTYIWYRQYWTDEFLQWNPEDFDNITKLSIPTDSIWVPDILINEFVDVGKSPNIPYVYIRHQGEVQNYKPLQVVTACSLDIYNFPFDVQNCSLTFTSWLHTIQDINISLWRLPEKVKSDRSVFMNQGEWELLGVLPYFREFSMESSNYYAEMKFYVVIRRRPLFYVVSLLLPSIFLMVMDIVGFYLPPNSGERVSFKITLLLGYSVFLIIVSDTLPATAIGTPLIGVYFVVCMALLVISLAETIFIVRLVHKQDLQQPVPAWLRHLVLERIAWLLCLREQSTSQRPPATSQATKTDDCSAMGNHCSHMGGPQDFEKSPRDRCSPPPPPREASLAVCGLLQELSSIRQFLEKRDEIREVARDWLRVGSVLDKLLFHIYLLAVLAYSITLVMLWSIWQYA
Nature of the test: FMP assay at h5-HT3A-HEK293 cells. The format is cell-based. The conditions noted are these: concentrations up to 100 μM, data not shown.

As to `COC(=O)c1sc(NC(=O)c2cc(Br)ccc2Cl)nc1C` [compound 1, 2-(5-bromo-2-chlorobenzamido)-4-methylthiazole-5-methyl ester], the IC50 on ZAC stood at 6.1 µM. Further, the “Effect on 5-HT-induced response” value on h5-HT3A was “did not affect”.
